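Grown in 96-well plates, cells were treated for 48 hours with each compound at five concentrations. Insufficient inhibition: endpoint recorded as highest concentration tested. GI50 marks 50% less growth.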 Calls of active or inactive are those of the source. Rule as the data show it: active = GI50 up to about 1.1 µM and inactive = higher.
What was measured:
Test in all cases: NCI tumour cell line growth inhibition, 48 h
SR = tested on: SR
COLO 205 = tested on: COLO 205
T47D = tested on: T47D
OVCAR-5 = tested on: OVCAR-5
ACHN = tested on: ACHN
MDA-N = tested on: MDA-N
MDA-MB-435 = tested on: MDA-MB-435
NCI-H226 = tested on: NCI-H226
MCF7 = tested on: MCF7
EKVX = tested on: EKVX
SK-MEL-28 = tested on: SK-MEL-28
DU-145 = tested on: DU-145
BT-549 = tested on: BT-549
UO-31 = tested on: UO-31
HCT-116 = tested on: HCT-116
CCRF-CEM = tested on: CCRF-CEM
SF-539 = tested on: SF-539
Hs-578T = tested on: Hs-578T
IGROV-1 = tested on: IGROV-1
SNB-75 = tested on: SNB-75

Compound | GI50 (SR) | GI50 (COLO 205) | GI50 (T47D) | GI50 (OVCAR-5) | GI50 (ACHN) | GI50 (MDA-N) | GI50 (MDA-MB-435) | GI50 (NCI-H226) | GI50 (MCF7) | GI50 (EKVX) | GI50 (SK-MEL-28) | GI50 (DU-145) | GI50 (BT-549) | GI50 (UO-31) | GI50 (HCT-116) | GI50 (CCRF-CEM) | GI50 (SF-539) | GI50 (Hs-578T) | GI50 (IGROV-1) | GI50 (SNB-75)
CCCCCCCCOC(=O)c1cc([N+](=O)[O-])c(Sc2[nH]cnc3ncnc2-3)c([N+](=O)[O-])c1 | 1.1 µM (active) | 1.6 µM (inactive) | 0.465 µM (active) | 3.15 µM (inactive) | 2.92 µM (inactive) | 1.35 µM (inactive) | 2.06 µM (inactive) | 2.03 µM (inactive) | 1.59 µM (inactive) | 8.71 µM (inactive) | 19.1 µM (inactive) | 1.27 µM (inactive) | 2.95 µM (inactive) | 3.85 µM (inactive) | 1.84 µM (inactive) | 0.288 µM (active) | 2 µM (inactive) | 5.33 µM (inactive) | 4.07 µM (inactive) | 2.47 µM (inactive)
Fc1ccc(OCc2nc3cc(C(F)(F)F)ccc3nc2-c2ccccc2)cc1 | 41.9 µM (inactive) | > 100 µM (inactive) | 62.5 µM (inactive) | > 100 µM (inactive) | > 100 µM (inactive) | > 100 µM (inactive) | > 63.8 µM (inactive) | > 100 µM (inactive) | 67.8 µM (inactive) | > 86.9 µM (inactive) | > 100 µM (inactive) | > 100 µM (inactive) | > 46.1 µM (inactive) | > 100 µM (inactive) | 99.5 µM (inactive) | > 44.1 µM (inactive) | > 100 µM (inactive) | > 81.7 µM (inactive) | > 100 µM (inactive) | > 100 µM (inactive)
COc1cccc2c(N)c3cccc(C(=O)NCCN(C)C)c3nc12 | 0.0152 µM (active) | 0.13 µM (active) | 0.274 µM (active) | 0.344 µM (active) | 0.0991 µM (active) | 0.321 µM (active) | 0.422 µM (active) | 0.11 µM (active) | 0.0146 µM (active) | 0.174 µM (active) | 1.27 µM (inactive) | 0.261 µM (active) | 1.19 µM (inactive) | 0.462 µM (active) | 0.0748 µM (active) | < 0.01 µM (active) | 0.135 µM (active) | 0.0746 µM (active) | 0.22 µM (active) | 0.0944 µM (active)
O=C(Nc1ccc(Cl)cc1Cl)C1C(=O)OC2(CCCCC2)OC1=O | 5.97 µM (inactive) | 10.4 µM (inactive) | 12.5 µM (inactive) | 9.12 µM (inactive) | 6.07 µM (inactive) | 15.7 µM (inactive) | 8.2 µM (inactive) | 12.6 µM (inactive) | 7.29 µM (inactive) | 11.9 µM (inactive) | 5.77 µM (inactive) | 10.5 µM (inactive) | 10.7 µM (inactive) | 2.94 µM (inactive) | 6.08 µM (inactive) | 4.24 µM (inactive) | 9.66 µM (inactive) | 10.8 µM (inactive) | 5.98 µM (inactive) | 10.4 µM (inactive)
COc1ccc2cc(CNCCOCCOCCNCc3ccc4cc(OC)ccc4c3)ccc2c1 | 0.251 µM (active) | 0.162 µM (active) | 1.06 µM (active) | 1.85 µM (inactive) | 1.6 µM (inactive) | 0.889 µM (active) | 0.494 µM (active) | 1.55 µM (inactive) | 0.887 µM (active) | 1.57 µM (inactive) | 0.869 µM (active) | 1.6 µM (inactive) | 1.89 µM (inactive) | 1.32 µM (inactive) | 1.23 µM (inactive) | 0.341 µM (active) | 1.54 µM (inactive) | 1.64 µM (inactive) | 1.63 µM (inactive) | 1.38 µM (inactive)
CCCCCC(=O)Nc1[nH]cnc1C(N)=O | > 100 µM (inactive) | > 100 µM (inactive) | > 100 µM (inactive) | > 100 µM (inactive) | > 100 µM (inactive) | > 100 µM (inactive) | > 100 µM (inactive) | > 100 µM (inactive) | > 100 µM (inactive) | > 100 µM (inactive) | > 100 µM (inactive) | > 100 µM (inactive) | > 100 µM (inactive) | > 100 µM (inactive) | > 100 µM (inactive) | > 100 µM (inactive) | > 100 µM (inactive) | > 100 µM (inactive) | > 100 µM (inactive) | > 100 µM (inactive)
